Reference: patent publication US9539222B2, “Methods to inhibit intracellular growth of bacteria and to treat bacteria-mediated diseases” (priority 2012, dated 2017)
Where two headings read alike, the source gives them in different places.

What was measured:
[1] = test system: Mycobacterium bovis BCG; format: cell-based; settings: for difference from control (untreated infected cells) in mROS and BCG survival: THP1 cells or hMDM infected with BCG, 2 mM MET, 10 mM NAC or GSH, 24 hrs; for effect of ROS scavenger on Metformin-induced inhibition of growth of intracellular BCG: infected THP1 cells, 2 mM Metformin, 10 mM scavenger
[2] = test system: H37Rv strain of Mycobacterium tuberculosis (MTB); format: cell-based
[3] = test system: reactive oxygen species (ROS); format: cell-based, human
[4] = test system: mycobacterial phagosomes; format: cell-based, human
[5] = test system: Mycobacterium tuberculosis (MTB); assay: Acute infection model of MTB in C57BL/6 mice, lung and spleen bacillary load (CFU); format: in vivo
[6] = mice; cited from earlier work
[7] = test system: BCG; assay: microbe, parasite or virus in culture; format: cell-based, Mycobacterium bovis BCG; settings: for IC50: Mycobacterium tuberculosis variant bovis BCG, BCG, read-out: IC50 in MIC assay
[8] = 50 mg/Kg oral, 2-4 weeks of treatment

## N[C@@H](CCC(=O)N[C@@H](CS)C(=O)NCC(=O)O)C(=O)O [GSH, glutathione]
[1]
  difference from control (untreated infected cells) in mROS and BCG survival: not significant
  effect of ROS scavenger on Metformin-induced inhibition of growth of intracellular BCG: abolishment
[2]
  difference from control in MTB survival (CFU): not significant

## CN(C)C(=N)NC(=N)N.Cl [Metformin, N,N-dimethyl imidodicarbonimidic diamide hydrochloride]
[1]; BCG-infected THP1 cells, 2 mM, no further reduction at later time points
  time in which inhibition of mycobacterial growth occurred: ≤ 24 h
[1]; BCG-infected THP1 cells, CFU at 24 hrs
  dose dependence of inhibition of intracellular mycobacteria: dose-dependent inhibition
[3]
  mROS, time- and dose-dependent change: increased significantly
  production of cytoplasmic ROS (cROS), CM-H2DCFDA: but not of cytoplasmic ROS (cROS)
  production of mitochondrial ROS (mROS), MitoSox: increased
[2]
  dose dependence of inhibition of intracellular MTB: dose-dependent inhibition

## CC(=O)N[C@@H](CS)C(=O)O [NAC, N-acetylcysteine]
[1]
  difference from control (untreated infected cells) in mROS and BCG survival: not significant
  effect of ROS scavenger on Metformin-induced inhibition of growth of intracellular BCG: abolishment
[4]
  effect on Metformin-induced phagosomal acidification: prevented
[2]; […], 2 mM MET, 10 mM NAC or GSH, 24 hrs
  difference from control in MTB survival (CFU): not significant

## Oc1ccc(/C=C/c2cc(O)cc(O)c2)cc1 [Resveratrol, 3,5,4′-trihydroxy-trans-stilbene]
[5]; 25 mg/Kg RES alone, oral
  bacilli load in the lung compared to controls: did not reduce
[5]; [8]
  CFU in the lung compared to control: less CFU
  CFU in the spleen compared to control: less CFU
[6]
  Oral LD50: ~2000 mg/kg

## CCCCc1oc2ccccc2c1C(=O)c1cc(I)c(OCCN(CC)CC)c(I)c1 [amiodarone, (2-{4-[(2-butyl-1-benzofuran-3-yl)carbonyl]-2,6-diiodophenoxy}ethyl)diethylamine]
[7]; in vitro BCG growth
  direct anti-mycobacterial activity in MIC assay: showed inhibition of mycobacterial growth

## CO[C@H]1C[C@@H]2CC[C@@H](C)[C@@](O)(O2)C(=O)C(=O)N2CCCC[C@H]2C(=O)O[C@H]([C@H](C)C[C@@H]2CC[C@@H](O)[C@H](OC)C2)CC(=O)[C@H](C)/C=C(\C)[C@@H](O)[C@@H](OC)C(=O)[C@H](C)C[C@H](C)/C=C/C=C/C=C/1C [rapamycin]
[7]
  IC50: ~13.8 µM

## C=C(C)[C@H]1Cc2c(ccc3c2O[C@@H]2COc4cc(OC)c(OC)cc4[C@@H]2C3=O)O1 [rotenone]
[3]
  production of cytoplasmic ROS (cROS), CM-H2DCFDA: upregulated
  production of mitochondrial ROS (mROS), MitoSox: upregulated

## CNC1C(OC2C(OC3C(O)C(O)C(NC(=N)N)C(O)C3NC(=N)N)OC(C)C2(O)C=O)OC(CO)C(O)C1O (stereo not shown) [streptomycin, 5-(2,4-diguanidino-3,5,6-trihydroxy-cyclohexoxy)-4-[4,5-dihydroxy-6-(hydroxymethyl)-3-methylamino-tetrahydropyran-2-yl]oxy-3-hydroxy-2-methyl-tetrahydrofuran-3-carbaldehyde]
[7]
  IC50: ~0.2 µM
